Results taken from article PMC2697320, “Identification of the high affinity binding site in the Streptococcus intermedius toxin intermedilysin for its membrane receptor, the human complement regulator CD59” (Molecular Immunology, 2009).
Where no end group is shown, it is not given here.

Columns and labels:
human erythrocytes = assay: Hemolytic assay for complement (C) activity, antibody-sensitised human erythrocytes; assay type: cell-based; conditions: at the dilutions used in these assays
Protocol: Hemolytic assays for C activity were performed using human erythrocytes sensitised with an in-house rabbit polyclonal antiserum against human CD55 as described ([Cole et al., 2006]). Sensitised erythrocytes (2% in CFD; 50 μl/well) were incubated for 30 min with various dilutions of human serum in CFD in the absence or presence of test peptides or blocking anti-CD59 antibodies. Plates were centrifuged and percent lysis calculated as above. Statistical analyses were carried out using unpaired Student's t-tests.

CD59 = target: T1, CD59 (Homo sapiens, UniProt P13987); assay: biochemical; assay type: binding; conditions: SPR steady state, immobilised CD59, 25 °C; read-out: KD, printed in Fig. 3C
T1 construct: Recombinant soluble CD59 comprising amino acids 1–76 with an 11 amino acid Ser/Gly linker; made in house
T1 sequence (P13987 26-101): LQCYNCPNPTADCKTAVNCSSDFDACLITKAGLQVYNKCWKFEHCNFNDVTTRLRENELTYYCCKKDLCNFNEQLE
Protocol: All surface plasmon resonance (SPR) analyses were carried out on a Biacore T100 (Biacore International SA, Stevenage, UK). Proteins were coupled to the sensor chip surface using thiol-based coupling chemistry. Briefly, recombinant CD59 was subjected to mild reduction for 16 h at 20 °C using TCEP at a molar ratio TCEP:CD59 of 3:1 [120 μm:40 μM] to reduce the terminal Cys residue while leaving internal disulphide bonds intact. An S-series CM5 carboxy-dextran coated chip was then activated using NHS/EDC (N-hydroxysuccinimide/1-ethyl-3(3-dimethyl aminopropyl)-carbodiimide hydrochloride) according to the manufacturer's protocol. The activated surface was further modified by flowing 80 mM 2-(2-pyridinyldithio)-ethaneamine hydrochloride (PDEA) in 0.1 M sodium borate (pH 8.5) to introduce reactive disulphide groups into the matrix. Reduced CD59 was flowed over this surface at pH 3.4 (10 mM NaCitrate) and coupling through the free amino-terminal thiol in the reduced CD59 monitored in real time. Blocking of residual activated residues was achieved by flowing 50 mM L-cysteine in 100 mM NaAcetate pH 4 containing 1 M NaCl. […] For all kinetic analyses, data were collected at 25 °C at a flow rate of 30 μl/min. […] Interactions were analysed in HBS containing 0.05% surfactant P20 and 3 mM EDTA. Data were evaluated using Biacore T100 Evaluation software.

GLAWEPWRLIYSKNDLPLVPC [ILY peptide]
lysis by peptide itself above background (human erythrocytes): neither “sense” nor jumbled peptide caused any lysis above background
Kd (CD59): 4.92 µM
